Consider three molecules from ChEMBL document CHEMBL1126406, “Novel oxathiazinones as gastrin ligands : Unexpected preducts from the schotten-baumann reaction of arylsulphonyl chlorides with derivatives of aspartic acid” (1992).

The species named for assay [1] is Mus musculus. The assay can be described thus: The compound was evaluated for the percentage of pentagastrin control in the isolated mouse stomach assay. Type of assay: functional.
The species entered for assay [2] is Mus musculus. Nature of the assay: Evaluated for the Log A50 value in the isolated mouse stomach assay. Type of assay: functional.

In assay [1], `NC(=O)C(Cc1ccccc1)NC(=O)[C@H](CC(=O)O)NS(=O)(=O)c1ccc2ccccc2c1` (stereo partly specified) registered a Control of 96%. Besides, in assay [2], the “Log A50” value was -5.6.
As to `Cc1ccc(S2(=O)=N[C@H](C(=O)NC(Cc3ccccc3)C(N)=O)CC(=O)O2)cc1` (stereo partly specified), the Control in assay [1] is reported as 56%. For the same molecule, the “Log A50” value in assay [2] was -5.3.
The corresponding values for `NC(=O)C(Cc1ccccc1)NC(=O)[C@@H]1CC(=O)OS(=O)(c2ccc3ccccc3c2)=N1` (stereo partly specified) are 67% and -8.1.
